For one compound, IC50 and ED50 results are on record in patent US6342504B1, “Aromatic heterocyclic derivatives as enzyme inhibitors” (priority 1994, dated 2002).

Each structure is given as a SMILES string. Counter-ions that a name gives are not always drawn. Like-named read-outs stand apart in the source and are kept apart here.

In general, IC50 refers to the concentration at which inhibition is half-maximal. The ED50 is the midpoint of the dose-response relation.

For one assay, the target named is T1, Human rt-PA (Activase) (Homo sapiens, UniProt P00750).
T1 construct: purchased Genentech Inc
Put plainly: biochemical. Particulars: 30 minute incubation; 1.0 nM enzyme; read-out: IC50 rt-PA (Table 2). The procedure:
The ability of compounds of the present invention to act as a selective inhibitor of thrombin catalytic activity was assessed by determining the concentration of compound which inhibited the activity of this enzyme by 50%, (IC50), and comparing this value to that determined for all or some of the following related serine proteases: recombinant tissue plasminogen activator (rt-PA), plasmin, activated protein C, chymotrypsin, factor Xa and trypsin.
(§1) The buffer used for all assays was HBSA (10 mM HEPES, pH 7.5, 150 mM sodium chloride, 0.1% bovine serum albumin).
The assay for IC50 determinations was conducted by combining in appropriate wells of a Corning microtiter plate, 50 microliters of HBSA, 50 microliters of the test compound at a specified concentration (covering a broad concentration range) diluted in HBSA (or HBSA alone for VO (uninhibited velocity) measurement), and 50 microliters of the enzyme diluted in HBSA. Following a 30 minute incubation at ambient temperature, 50 microliters of the substrate at the concentrations specified below were added to the wells, yielding a final total volume of 200 microliters. The initial velocity of chromogenic substrate hydrolysis was measured by the change in absorbance at 405 nm using a Thermo Max® Kinetic Microplate Reader over a 5 minute period in which less than 5% of the added substrate was utilized. The concentration of added inhibitor which caused a 50% decrease in the initial rate of hydrolysis was defined as the IC50 value.
Recombinant Tissue Plasminogen Activator (rt-PA) Assay
rt-PA catalytic activity was determined using the substrate, Pefachrome t-PA (CH3SO2-D-hexahydrotyrosine-glycyl-L-arginine-p-nitroaniline, obtained from Pentapharm Ltd.). The substrate was made up in deionized water followed by dilution in HBSA prior to the assay in which the final concentration was 500 micromolar (about 3-times Km). Human rt-PA (Activase®) was obtained from Genentech Inc. The enzyme was reconstituted in deionized water and diluted into HBSA prior to the assay in which the final concentration was 1.0 nM.

In assay [1] the test system is clot formation on silk thread in A-V shunt. As to the kind of experiment: Multiple extracorporeal (A-V) shunt model in rats utilizing oral dosing. It counts as in vivo. Particulars: rat, read-out: ED50 value (dose that reduced the clot size by 50%). As to the method: The compounds of Example 10 and 143 were evaluated in a multichamber A-V shunt model in rats. The A-V shunt model is one of the most common and generally used systems to evaluate antithrombotic compounds: Smith, J. R. and White, A. M. Br. J. Pharmacol., 77: 29-38 (1982). In this model a localized clot made up of primarily fibrin with some platelet and macrophage involvement (Shand, R. A. and Smith, J. R. and Wallis, R. B. Thromb. Res., 36: 223-232 (1984)), is formed on an artificial thrombogenic surface (typically a segment of silk or cotton thread) contained in a sialstic chamber which is part of an exteriorized shunt between the carotid artery and jugular vein. The procedure described in this Example is a modified A-V shunt model that allows for oral dosing of test agents and subsequent evaluation of efficacy over a two to three hour window in time.
Briefly, male Harlan Sprague Dawley rats (420-450 g) were acclimated at least 72 hours prior to use. The animals were fasted for 12 hours prior to surgery with free access to water. Unanesthetized animals were grouped into three or four dosage groups (six or seven animals per group) and administered test agents orally via gavage needle, at doses of 1.0, 3.0, 10 and 50 mg/kg for the compound of Example 10, and 3.0, 10 and 30 mg/kg for the Compound of Example 143. Immediately after oral dosing, animals were anesthetized with sodium pentobarbital (Nembutal) given intraperitoneally at a dose of 50 mg/kg body weight, and placed on a isothermal pad to maintain body temperature. The level of anesthesia was monitored every 15 minutes by neuro-response to a tail pinch, respiration and core temperature. The desired depth of surgical anesthesia was maintained by administering subsequent doses (5 mg/kg) intravenously. The left femoral artery was catheterized using standard procedures for blood pressure monitoring and blood sampling, with polyethylene tubing (PE50). The left femoral vein was catheterized with PE50 tubing for delivery of anethestic.
The exteriorized shunts were assembled by connecting two pieces of saline filled 12.5 cm PE90 tubing with a 6 cm piece of PE160 tubing containing a 6 cm piece of silk suture size 3 and clamped with hemostats. A small 0.5 cm portion of the silk thread protrudes from the junction of the chamber with the shunt. The left jugular vein and right carotid artery were catheterized with the ends of the PE90 shunt. The shunt was unclamped and blood allowed to flow from the carotid artery, through the chamber, and exit the shunt via the jugular vein. After 15 minutes, both sides of the chamber were clamped and the suture containing the clot removed following detachment of the arterial end of the chamber. The clot was immediately weighed and recorded. This procedure takes place at predetermined intervals (60, 90, 120, and 150 minutes after oral dosing) to allow assessment of efficacy over a large window in time. Four shunts were placed with flow initiated at 45, 75, 105, and 135 minutes after oral compound administration. Clot weight from the four shunts was the primary endpoint of the protocol. Blood pressure, heart rate core temperature and respiration were monitored continuously. Following termination of the experiment the animals were euthanized with a 120 mg/kg dose of Nembutal. One experiment was performed per animal.
ED50 values were calculated at 60, 90, 120, and 150 minutes after oral dosing of test compound. ED50 is that dose that reduced the clot size by 50%. […]

The target in another assay is T2, human aPC (Homo sapiens, UniProt P04070).
T2 construct: purchased Hematologic Technologies, Inc
As to the kind of experiment: biochemical. Particulars: 30 minute incubation; 1.0 nM enzyme; read-out: IC50 aPC (Table 2). The procedure: as §1
Following a 30 minute incubation at ambient temperature, 50 microliters of the substrate at the concentrations specified below were added to the wells, yielding a final total volume of 200 microliters.
Activated Protein C (aPC) Assay
aPC catalytic activity was determined using the chromogenic substrate, Pefachrome PC (delta-carbobenzloxy-D-lysine-L-prolyl-L-arginine-p-nitroaniline dihydrochloride), obtained from Pentapharm Ltd.). […] Purified human aPC was obtained from Hematologic Technologies, Inc. The enzyme was diluted into HBSA prior to assay in which the final concentration was 1.0 nM.

T1 sequence (P00750 36-562): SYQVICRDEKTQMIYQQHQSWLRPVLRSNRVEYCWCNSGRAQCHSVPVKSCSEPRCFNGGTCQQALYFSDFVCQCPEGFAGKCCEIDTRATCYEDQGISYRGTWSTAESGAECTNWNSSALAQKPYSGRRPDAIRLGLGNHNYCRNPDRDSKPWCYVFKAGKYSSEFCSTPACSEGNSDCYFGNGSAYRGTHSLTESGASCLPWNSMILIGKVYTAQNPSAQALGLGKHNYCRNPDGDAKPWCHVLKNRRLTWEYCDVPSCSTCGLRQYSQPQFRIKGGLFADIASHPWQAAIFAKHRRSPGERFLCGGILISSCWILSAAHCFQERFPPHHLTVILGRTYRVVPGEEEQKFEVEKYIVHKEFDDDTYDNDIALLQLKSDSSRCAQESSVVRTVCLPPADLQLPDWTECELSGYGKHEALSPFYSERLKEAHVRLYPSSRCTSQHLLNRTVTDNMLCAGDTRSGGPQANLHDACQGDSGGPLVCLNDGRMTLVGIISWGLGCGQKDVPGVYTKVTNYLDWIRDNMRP
T2 sequence (P04070 43-197): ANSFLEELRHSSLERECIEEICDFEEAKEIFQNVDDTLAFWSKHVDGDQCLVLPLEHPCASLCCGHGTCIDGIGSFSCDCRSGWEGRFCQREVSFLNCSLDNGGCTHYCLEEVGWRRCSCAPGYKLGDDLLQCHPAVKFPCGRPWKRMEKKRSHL
T2 sequence (P04070 212-461): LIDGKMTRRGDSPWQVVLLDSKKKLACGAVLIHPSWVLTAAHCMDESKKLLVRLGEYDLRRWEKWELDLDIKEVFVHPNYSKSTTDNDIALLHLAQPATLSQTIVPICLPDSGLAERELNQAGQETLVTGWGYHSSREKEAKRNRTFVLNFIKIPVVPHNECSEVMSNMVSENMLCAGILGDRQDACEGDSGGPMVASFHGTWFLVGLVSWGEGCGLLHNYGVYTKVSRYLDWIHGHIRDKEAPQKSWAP

In the case of `N=C(N)NCCC[C@@H](C=O)NC(=O)Cn1cccc(NS(=O)(=O)Cc2ccccc2)c1=O` [Example 10, [3-[(benzylsulfonyl)amino]-2-oxo-1,2-dihydropyridyl]acetyl-L-argininal, trifluoroacetate salt], the IC50 on Human rt-PA (Activase) and at human aPC was over 2500 nM in each case. In addition, the ED50 in assay [1] (1 h, 60 min after oral dose) was under 1 mg/kg; in assay [1] (1.5 h, 90 min after oral dose) it was 2.9 mg/kg; in assay [1] (2 h, 120 min after oral dose), 2.9 mg/kg; in assay [1] (150 min after oral dose), 8.2 mg/kg.
